Laboratory results reported in patent US8372854B2, “Pyrrolo[2,3-D]pyrimidine compounds” (Pfizer Inc., priority 2009, dated 2013).

Tests used:
Assay type in all cases: biochemical
JAK2 = target: T1, JAK2 (Homo sapiens, UniProt O60674); assay: JAK enzymatic assay (peptide mobility shift), JAK2; conditions: recombinant JAK2 2 nM, ATP 4 μM, 1 μM JAKtide peptide, 150 minutes
T1 construct: purchased Invitrogen Corporation, Madison, Wis; PV4210
Text: (§1) Recombinant JAK1 (Catalog Number PV4775), JAK2 (Catalog Number PV4210) and JAK3 (Catalog Number PV3855) were purchased from (Invitrogen Corporation, Madison, Wis.). Tyk2 (His-Tyk2 (888-1182, C936S, C1142S)) used in this study was expressed and purified at Pfizer Laboratories. Adenosine 5′-triphosphate (ATP) was obtained from (Sigma Chemical Company, St. Louis, Mo.). The JAKtide peptide (peptide sequence, FITC-[…]) used for the JAK2 and JAK3 assays and the IRS-1 peptide (peptide sequence, 5-FAM-[…]) used for the JAK1 and Tyk2 assays were purchased from (American Peptide Company, Sunnyvale, Calif.). Coating Reagent 3 was purchased from (Caliper Life Sciences, Hopkinton, Mass.).
(§2) A peptide mobility shift assay was used to quantify the phosphorylation of the JAKtide (JAK2 and JAK3) or the IRS-1 peptide ([…] and Tyk2). Reactions were carried out in a 384-well plate (Matrical MP-101) in a 10 μL total volume. Reaction mixtures contained 20 mM HEPES, pH 7.4, 10 mM magnesium chloride, 0.01% bovine serum albumin (BSA), 0.0005% Tween-20, ATP (4 μM for JAK2 and JAK3, 40 μM for JAK1 and 7 μM for Tyk2)), 2% DMSO and 1 μM peptide substrate (JAKtide for JAK2 and JAK3 and IRS-1 peptide for JAK1 and Tyk2). Compounds were diluted serially in 100% dimethyl sulfoxide and tested in an 11 point dose response in duplicate or quadruplicate (200 nl of compound/DMSO was added per 10 μL reaction). The reactions were initiated by the addition of enzyme to the final concentration of 2 nM JAK2, 1 nM JAK3, 12 nM Tyk2 or 20 nM JAK1. The assay was run for 240 minutes for JAK1, 150 minutes for JAK2, 90 minutes for JAK3 and 70 minutes for Tyk2. The assays were stopped at the specified times with 20 uL of 140 mM HEPES, 22.5 mM EDTA and 0.15% Coating Reagent 3. The plates were placed on a LabChip 3000 (LC3000) instrument from (Caliper Life Sciences) to measure the formation of phosphorylated peptide. Data was analyzed using Hits Well Analyzer Software from (Caliper Life Sciences) to obtain the amount of product formed.
(§3) Data was then imported into an internal application where each data point is expressed as % inhibition based on uninhibited and no enzyme controls. Dose-response data is then fit using a 4 parameter logistic equation (Equation 1) to determine an IC50.
(§4) Where max is the fitted uninhibited value, min is the fitted complete inhibition value, and s is the slope factor.

JAK1 = target: T2, JAK1 (Homo sapiens, UniProt P23458); assay: JAK enzymatic assay (peptide mobility shift), JAK1; conditions: recombinant JAK1 20 nM, ATP 40 μM, 1 μM IRS-1 peptide, 240 minutes
T2 construct: purchased Invitrogen Corporation, Madison, Wis; PV4775
Text: as §1, §2, §3, §4

JAK3 = target: T3, JAK3 (Homo sapiens, UniProt P52333); assay: JAK enzymatic assay (peptide mobility shift), JAK3; conditions: recombinant JAK3 1 nM, ATP 4 μM, 1 μM JAKtide peptide, 90 minutes
T3 construct: purchased Invitrogen Corporation, Madison, Wis; PV3855
T3 sequence (P52333 1-1124): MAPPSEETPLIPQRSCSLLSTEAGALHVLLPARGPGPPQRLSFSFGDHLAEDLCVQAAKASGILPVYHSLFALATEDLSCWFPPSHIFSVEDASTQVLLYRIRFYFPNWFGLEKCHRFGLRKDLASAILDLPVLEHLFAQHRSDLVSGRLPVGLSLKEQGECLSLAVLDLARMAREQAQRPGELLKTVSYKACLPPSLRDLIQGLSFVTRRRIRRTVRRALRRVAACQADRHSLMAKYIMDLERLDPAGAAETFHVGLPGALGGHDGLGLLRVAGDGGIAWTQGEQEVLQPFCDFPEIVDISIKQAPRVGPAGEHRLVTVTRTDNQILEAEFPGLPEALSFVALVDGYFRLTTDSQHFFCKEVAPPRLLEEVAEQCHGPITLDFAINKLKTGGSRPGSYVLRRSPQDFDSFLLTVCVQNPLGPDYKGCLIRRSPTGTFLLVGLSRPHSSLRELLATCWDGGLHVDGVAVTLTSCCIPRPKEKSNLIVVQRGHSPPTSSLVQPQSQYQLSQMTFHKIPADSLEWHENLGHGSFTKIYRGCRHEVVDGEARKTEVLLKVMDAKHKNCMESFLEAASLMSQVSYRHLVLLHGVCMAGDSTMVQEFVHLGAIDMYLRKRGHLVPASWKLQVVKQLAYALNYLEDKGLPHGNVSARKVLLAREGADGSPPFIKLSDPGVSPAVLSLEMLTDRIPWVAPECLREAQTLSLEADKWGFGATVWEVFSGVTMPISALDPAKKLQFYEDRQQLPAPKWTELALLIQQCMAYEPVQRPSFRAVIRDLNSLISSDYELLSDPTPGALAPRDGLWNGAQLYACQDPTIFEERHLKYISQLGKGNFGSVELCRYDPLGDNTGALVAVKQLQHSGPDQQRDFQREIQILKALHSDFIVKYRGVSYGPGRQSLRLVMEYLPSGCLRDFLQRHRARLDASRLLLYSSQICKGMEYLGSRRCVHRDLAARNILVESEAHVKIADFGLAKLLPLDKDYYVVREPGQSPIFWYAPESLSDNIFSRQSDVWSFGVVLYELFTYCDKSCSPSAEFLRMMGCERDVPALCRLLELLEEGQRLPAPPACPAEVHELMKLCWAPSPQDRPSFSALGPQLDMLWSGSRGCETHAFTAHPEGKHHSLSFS
Text: Recombinant JAK1 (Catalog Number PV4775), JAK2 (Catalog Number PV4210) and JAK3 (Catalog Number PV3855) were purchased from (Invitrogen Corporation, Madison, Wis.). Tyk2 (His-Tyk2 (888-1182, C936S, C1142S)) used in this study was expressed and purified at Pfizer Laboratories. Adenosine 5′-triphosphate (ATP) was obtained from (Sigma Chemical Company, St. Louis, Mo.). […] Coating Reagent 3 was purchased from (Caliper Life Sciences, Hopkinton, Mass.).
as §2, §3, §4

T1 sequence (O60674 whole entry): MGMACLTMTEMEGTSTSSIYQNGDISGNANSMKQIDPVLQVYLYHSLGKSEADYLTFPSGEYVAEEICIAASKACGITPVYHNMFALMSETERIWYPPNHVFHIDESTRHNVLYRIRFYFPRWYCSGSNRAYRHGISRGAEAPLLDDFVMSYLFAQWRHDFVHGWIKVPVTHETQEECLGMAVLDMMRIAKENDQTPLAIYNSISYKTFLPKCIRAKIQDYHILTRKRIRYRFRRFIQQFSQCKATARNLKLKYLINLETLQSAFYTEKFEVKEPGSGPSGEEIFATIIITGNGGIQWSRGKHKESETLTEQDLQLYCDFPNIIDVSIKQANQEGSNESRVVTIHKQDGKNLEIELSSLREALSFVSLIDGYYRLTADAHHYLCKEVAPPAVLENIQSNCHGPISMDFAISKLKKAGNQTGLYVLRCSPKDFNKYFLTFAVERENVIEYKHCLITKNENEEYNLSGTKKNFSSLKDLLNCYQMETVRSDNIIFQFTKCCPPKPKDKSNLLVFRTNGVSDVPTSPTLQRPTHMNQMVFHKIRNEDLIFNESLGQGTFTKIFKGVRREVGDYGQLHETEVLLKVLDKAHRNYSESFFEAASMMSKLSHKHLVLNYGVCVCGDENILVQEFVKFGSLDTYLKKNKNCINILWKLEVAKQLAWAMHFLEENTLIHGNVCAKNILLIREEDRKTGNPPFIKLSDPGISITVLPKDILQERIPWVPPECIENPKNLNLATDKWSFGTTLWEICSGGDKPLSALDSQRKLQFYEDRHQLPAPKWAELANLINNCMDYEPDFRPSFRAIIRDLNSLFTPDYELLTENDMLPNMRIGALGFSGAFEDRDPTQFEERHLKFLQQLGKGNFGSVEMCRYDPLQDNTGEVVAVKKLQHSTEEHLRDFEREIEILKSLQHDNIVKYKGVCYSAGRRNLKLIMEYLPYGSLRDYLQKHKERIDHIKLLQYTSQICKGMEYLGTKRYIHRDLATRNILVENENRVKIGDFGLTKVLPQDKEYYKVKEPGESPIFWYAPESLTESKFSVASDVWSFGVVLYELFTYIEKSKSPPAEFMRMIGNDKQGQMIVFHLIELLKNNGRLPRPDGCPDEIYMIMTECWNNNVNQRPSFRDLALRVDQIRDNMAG
T2 sequence (P23458 whole entry): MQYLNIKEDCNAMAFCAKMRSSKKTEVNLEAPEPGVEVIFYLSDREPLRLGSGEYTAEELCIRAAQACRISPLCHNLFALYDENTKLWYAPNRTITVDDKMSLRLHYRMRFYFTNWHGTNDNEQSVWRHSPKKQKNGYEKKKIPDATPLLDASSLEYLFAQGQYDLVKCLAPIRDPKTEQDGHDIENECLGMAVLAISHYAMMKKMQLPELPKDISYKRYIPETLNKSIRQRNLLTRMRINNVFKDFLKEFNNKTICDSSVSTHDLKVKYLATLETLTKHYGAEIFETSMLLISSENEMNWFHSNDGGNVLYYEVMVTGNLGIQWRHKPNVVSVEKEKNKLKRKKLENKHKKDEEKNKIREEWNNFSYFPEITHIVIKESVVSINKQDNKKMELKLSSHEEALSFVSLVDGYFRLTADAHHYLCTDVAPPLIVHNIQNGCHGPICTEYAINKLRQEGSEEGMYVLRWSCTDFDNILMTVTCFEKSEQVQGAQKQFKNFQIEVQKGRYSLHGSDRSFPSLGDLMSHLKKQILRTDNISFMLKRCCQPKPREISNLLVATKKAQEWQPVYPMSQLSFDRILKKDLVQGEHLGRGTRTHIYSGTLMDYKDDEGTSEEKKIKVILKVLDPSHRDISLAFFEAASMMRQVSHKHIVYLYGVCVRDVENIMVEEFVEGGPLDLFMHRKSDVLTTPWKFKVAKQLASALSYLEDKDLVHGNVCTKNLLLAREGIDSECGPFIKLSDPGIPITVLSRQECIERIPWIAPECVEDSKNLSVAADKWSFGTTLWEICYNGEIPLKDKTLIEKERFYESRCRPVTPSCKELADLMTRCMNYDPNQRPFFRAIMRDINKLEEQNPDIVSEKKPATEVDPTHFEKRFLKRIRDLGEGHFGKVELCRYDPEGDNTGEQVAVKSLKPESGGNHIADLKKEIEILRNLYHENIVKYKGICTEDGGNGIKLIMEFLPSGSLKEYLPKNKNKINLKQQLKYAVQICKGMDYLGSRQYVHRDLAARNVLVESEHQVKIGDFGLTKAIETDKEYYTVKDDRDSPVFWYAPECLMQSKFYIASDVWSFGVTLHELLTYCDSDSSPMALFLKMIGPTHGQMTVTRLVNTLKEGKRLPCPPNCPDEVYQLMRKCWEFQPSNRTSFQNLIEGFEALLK

| Structure (SMILES) | IC50 (JAK2) [nM] | IC50 (JAK1) [nM] | IC50 (JAK3) [nM] |
| --- | --- | --- | --- |
| Cc1cccc(CCNS(=O)(=O)C[C@H]2CC[C@H](N(C)c3ncnc4[nH]ccc34)CC2)n1 [Example 50, N-[2-(6-methylpyridin-2-yl)ethyl]-1-{trans-4-[methyl(7H-pyrrolo[2,3-d]-pyrimidin-4-yl)amino]-cyclohexyl}-methanesulfonamide] | 80.6 | 21.6 | 633 |
| CN(c1ncnc2[nH]ccc12)[C@H]1CC[C@H](CS(=O)(=O)NC2(Cc3ccccc3)CCC2)CC1 [Example 44, N-(1-benzylcyclobutyl)-1-{trans-4-[methyl(7H-pyrrolo-[2,3-d]pyrimidin-4-yl)amino]-cyclohexyl}methane-sulfonamide] | 112 | 15.1 | 641 |
| CC(C)c1ccc(CCNS(=O)(=O)C[C@H]2CC[C@H](N(C)c3ncnc4[nH]ccc34)CC2)c(F)c1 [Example 38, N-[2-(2-fluoro-4-isopropylphenyl)ethyl]-1-{trans-4-[methyl(7H-pyrrolo[2,3-d]pyrimidin-4-yl)amino]cyclohexyl}-methanesulfonamide] | 55.4 | 9.13 | 145 |
| CN(c1ncnc2[nH]ccc12)[C@H]1CC[C@H](CS(=O)(=O)NCC(F)c2ccc(F)cc2)CC1 (stereo partly drawn) [Example 11, N-[2-fluoro-2-(4-fluoro-phenyl)ethyl]-1-{trans-4-[methyl(7H-pyrrolo[2,3-d]-pyrimidin-4-yl)amino]-cyclohexyl}-methanesulfonamide] | 61.9 | 13.5 | 424 |
| CN(c1ncnc2[nH]ccc12)[C@H]1CC[C@H](CS(=O)(=O)NCCc2ccc(Cl)c(Cl)c2)CC1 [Example 42, N-[2-(3,4-dichlorophenyl)-ethyl]-1-{trans-4-[methyl-(7H-pyrrolo[2,3-d]pyrimidin-4-yl)amino]cyclohexyl}-methanesulfonamide] | 55.7 | 14.5 | 427 |
| CN(c1ncnc2[nH]ccc12)[C@H]1CC[C@H](CS(=O)(=O)NCCc2ccc(C(F)(F)F)cc2F)CC1 [Example 13, N-{2-[2-fluoro-4-(trifluoro-methyl)phenyl]ethyl}-1-{trans-4-[methyl(7H-pyrrolo[2,3-d]pyrimidin-4-yl)amino]cyclohexyl}-methanesulfonamide] | 55.3 | 17.4 |  |
| Cc1nn(C)cc1CNS(=O)(=O)C[C@H]1CC[C@H](N(C)c2ncnc3[nH]ccc23)CC1 [Example 52, N-[(1,3-dimethyl-1H-pyrazol-4-yl)methyl]-1-{trans-4-[methyl(7H-pyrrolo[2,3-d]pyrimidin-4-yl)amino]cyclohexyl}-methanesulfonamide] | 107 | 24 | 762 |

Stronger by IC50 (JAK2), values ahead:

| IC50 (JAK2) [nM] | IC50 (JAK1) [nM] | IC50 (JAK3) [nM] | Structure (SMILES) |
| --- | --- | --- | --- |
| 34.1 | 11.4 | 201 | CN(c1ncnc2[nH]ccc12)[C@H]1CC[C@@H](CS(=O)(=O)NCC2CC2)CC1 [Example 55, N-(cyclopropylmethyl)-1-{cis-4-[methyl(7H-pyrrolo[2,3-d]pyrimidin-4-yl)amino]cyclohexyl}-methanesulfonamide] |
| 41.4 | 7.7 | 294 | CN(c1ncnc2[nH]ccc12)[C@H]1CC[C@H](CS(=O)(=O)NCCc2cccc(Cl)c2)CC1 [Example 36, N-[2-(3-chlorophenyl)ethyl]-1-{trans-4-[methyl(7H-pyrrolo[2,3-d]pyrimidin-4-yl)amino]cyclohexyl}-methanesulfonamide] |
| 45.4 | 10 | 224 | CN(c1ncnc2[nH]ccc12)[C@H]1CC[C@H](CS(=O)(=O)NC2CC2)CC1 [Example 1, N-cyclopropyl-1-{trans-4-[methyl(7H-pyrrolo[2,3-d]pyrimidin-4-yl)amino]cyclohexyl}methanesulfonamide] |
| 36.6 | 10.7 | 114 | COc1ccc(CNS(=O)(=O)C[C@H]2CC[C@@H](N(C)c3ncnc4[nH]ccc34)CC2)cc1 [Example 56, N-(4-methoxybenzyl)-1-{cis-4-[methyl(7H-pyrrolo[2,3-d]pyrimidin-4-yl)amino]cyclohexyl}-methanesulfonamide] |
| 39.7 | 10.5 | 531 | CN(c1ncnc2[nH]ccc12)[C@H]1CC[C@H](CS(=O)(=O)NCC(C)(F)c2cccc(F)c2)CC1 (stereo partly drawn) [Example 9, N-[2-fluoro-2-(3-fluoro-phenyl)propyl]-1-{trans-4-[methyl(7H-pyrrolo[2,3-d]-pyrimidin-4-yl)amino]-cyclohexyl}-methanesulfonamide] |
| 30.6 | 9.79 | 240 | CN(c1ncnc2[nH]ccc12)[C@H]1CC[C@H](CS(=O)(=O)NCC(O)c2ccc(F)c(F)c2)CC1 (stereo partly drawn) [Example 39, N-[2-(3,4-difluorophenyl)-2-hydroxyethyl]-1-{trans-4-[methyl(7H-pyrrolo[2,3-d]pyrimidin-4-yl)amino]-cyclohexyl}-methanesulfonamide] |
| 19 | 3.67 | 154 | CN(c1ncnc2[nH]ccc12)[C@H]1CC[C@H](CS(=O)(=O)NCCc2ccc(Cl)cc2)CC1 [Example 31, N-[2-(4-chlorophenyl)ethyl]-1-{trans-4-[methyl(7H-pyrrolo[2,3-d]pyrimidin-4-yl)amino]cyclohexyl}-methanesulfonamide] |
| 14.9 | 1.82 | 166 | CN(c1ncnc2[nH]ccc12)[C@H]1CC[C@H](CS(=O)(=O)NCCc2ccc(S(N)(=O)=O)cc2)CC1 [Example 2, 4-(2-{[({trans-4-[methyl(7H-pyrrolo[2,3-d]pyrimidin-4-yl)amino]cyclohexyl}methyl)sulfonyl]amino}ethyl)benzene-sulfonamide] |
| 4.55 | 1.65 | 55.8 | CN(c1ncnc2[nH]ccc12)[C@H]1CC[C@H](CS(=O)(=O)Nc2ccc3[nH]ccc3c2)CC1 [Example 24, N-1H-indol-5-yl-1-{trans-4-[methyl(7H-pyrrolo[2,3-d]-pyrimidin-4-yl)amino]-cyclohexyl}-methanesulfonamide] |
